# Experiment: Solubilisation of poorly soluble active ingredients in the Olea europea triglycerides/diglycerides mixture
# Assay type: physicochemical
# Text: Improved formulations have been prepared by solubilising lipophilic ingredients, which are known for their interesting cosmetic activity but also for their difficult usage due to their poor solubility and/or dispersion into common cosmetic matrixes.
# Ceramides are major components (roughly 40%) of the lipidic layers of the epidermis barrier, which drive the balance between hydration and loss of water, having the important role of “cement” between the corneocytes, i.e. the brick cells forming the dermal layers. The high difficulty for the application of ceramides in cosmetics is their poor solubility: in order to solubilise them into esters, a heating step above 90° C. is normally required with possible damage of the ceramides.
# The use of triglycerides/diglycerides mixture as a solubiliser has allowed the solubilisation of ceramide-3 also at high concentration (up to 50%) without excessive and long time heating steps, A liquid ingredient, easy to use by simple addition into the lipid phase of the cosmetic formulation, has been obtained so far.
# Sericin is one of the two families of proteins constituting the pure silk secreted by the silkworm glands: its dimensions vary from 60 up to 500 kDa. […]
"concentration at which ceramide-3 is solubilised (triglycerides/diglycerides mixture as solubiliser, without excessive and long time heating steps)",Compound,"dissolution of high molecular weight sericin (in mixtures of triglycerides/diglycerides from olive, compared with other commonly used vehicles or solubilisers)"
up to 50%,CCCCCCCCCCCCCCCCCC(=O)N[C@@H](CO)[C@H](O)[C@H](O)CCCCCCCCCCCCCC [ceramide-3],
,sericin,successfully dissolved

# Source: patent US20100297047A1, “ESTERS OF GLYCEROL AND THEIR USES IN COSMETIC AND PHARMACEUTICAL APPLICATIONS” (BIOPHIL ITALIA S.P.A., priority 2007, published 2010)
